We go through five compounds from patent US9187492B2, “Pyripyropene derivative having ACAT2 inhibiting activity and stable to metabolizing enzymes” (School Juridical Person Kitasato Institute, priority 2010, dated 2015).

The conditions of data set [1]: female, Sprague-Dawley (SD), rat, microsomes, 6 μg/mL, pH 7.4.
Data set [2] is described as follows: in vitro. The note with it: female, Sprague-Dawley (SD), rat, microsomes, pH 7.4, Half-life.
Data set [3] deals with T1, ACAT2 (Mus musculus, UniProt O88908).
T1 construct: The resulting sediment was collected as a microsome fraction; from tissue; host or cells: mouse liver (hepatic microsome membrane fraction)
T1 sequence (O88908 1-525): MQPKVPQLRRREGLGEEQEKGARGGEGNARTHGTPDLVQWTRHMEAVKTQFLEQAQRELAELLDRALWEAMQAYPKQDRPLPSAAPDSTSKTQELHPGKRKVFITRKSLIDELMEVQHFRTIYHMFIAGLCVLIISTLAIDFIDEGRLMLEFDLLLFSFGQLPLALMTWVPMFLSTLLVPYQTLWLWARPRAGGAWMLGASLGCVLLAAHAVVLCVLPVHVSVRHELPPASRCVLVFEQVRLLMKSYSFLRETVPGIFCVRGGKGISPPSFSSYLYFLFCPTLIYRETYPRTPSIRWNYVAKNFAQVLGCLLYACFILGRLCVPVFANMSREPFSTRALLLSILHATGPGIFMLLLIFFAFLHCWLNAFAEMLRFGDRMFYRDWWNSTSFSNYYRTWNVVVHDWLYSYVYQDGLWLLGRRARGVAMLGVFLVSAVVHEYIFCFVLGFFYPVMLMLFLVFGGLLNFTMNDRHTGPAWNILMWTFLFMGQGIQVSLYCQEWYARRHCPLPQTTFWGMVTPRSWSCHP
Put plainly: Measurement of ACAT2-inhibiting activity (murine hepatic microsome, [14C]cholesteryl oleate formation). The class given is biochemical. The note with it: for IC50: murine hepatic microsome membrane fraction, 5 min at 37° C., read-out: Inhibitory activity (concentration required for 50% inhibition of ACAT 2 = IC50); for Specific activity ((IC50 of the test compound)/(IC50 of PRD 043)): relative to PRD 043, class symbols. How it is done:
The enzyme source which was used was a membrane fraction derived from murine hepatic microsome. Mouse livers were homogenized in buffer solution A (50 mM Tris HCl solution (pH 7.8), 1 mM ethylene diamine tetraacetate, and 1 mM phenylmethanesulfonyl fluoride) using a Potter-type homogenizer (Tokyo-Riko). The homogenate was centrifuged at 12000×g, and the supernatant was subjected to ultracentrifugation at 100000×g. The resulting sediment was collected as a microsome fraction, and this fraction was adjusted so as to have a protein concentration of 5 mg/mL using buffer solution A.
As a control, 10 μL of methanol were used in place of the pyripyropene derivative.
The chloroform layer was evaporated to dryness and was used to spot a thin layer chromatography plate (silica gel plate, Merck, 0.5 mm thickness). Elution for separation was carried out using hexane/diethyl ether/acetic acid (70:30:1, v/v) as an eluant.
wherein the background is the radioactivity of a thin layer chromatography plate which was not spotted.

A short description of data set [4]: Stability against metabolizing enzymes in the liver (hepatic microsome). To be noted: time until remaining amount reached 50%, 37° C.; for half-life at 6 μg/mL: female, Sprague-Dawley (SD), rat, liver microsomes, pH 7.4, Half-life; for Half-life: female SD rat hepatic microsome, 6 μg/mL, pH 7.4. For orientation: Liver microsomes are vesicles of endoplasmic reticulum, rich in cytochrome P450 enzymes.

Where two headings read alike, the source gives them in different places.

The half-life is the time needed for the level to fall by half in the phase considered. A low value points to fast loss. The compound `CC(=O)OC[C@@]1(C)[C@@H]2C[C@H](OC(C)=O)[C@@]3(C)Oc4cc(-c5cccnc5)oc(=O)c4[C@H](O)[C@@H]3[C@@]2(C)CC[C@@H]1OC(C)=O` [PPA, pyripyropene A] came in with a Half-life in data set [1] below 1 h. In data set [2], the half-life at 6 μg/mL is 1 h.
Consider `COc1ccccc1[C@@H]1OCC2(C)C3C[C@H](OC(=O)c4ccc(F)cc4)[C@@]4(C)Oc5cc(-c6cccnc6)oc(=O)c5[C@H](O)C4[C@@]3(C)CC[C@@H]2O1` (stereo partly drawn) [PRD162, 1,11-O-o-methoxybenzylidene-7-O-p-fluorobenzoyl-1,7,11-trideacetylpyripyropene A], for which, in data set [3], the IC50 was 1 to 10 nM and the “Specific activity ((IC50 of the test compound)/(IC50 of PRD 043))” value is given as “+++ (10<specific activity≦20)”. In data set [4], the half-life at 6 μg/mL is at least 9 h and the Half-life was above 9 h.
For `CN(C)c1ccc([C@@H]2OCC3(C)C4C[C@H](OC(=O)c5ccc(C#N)cc5)[C@@]5(C)Oc6cc(-c7cccnc7)oc(=O)c6[C@H](O)C5[C@@]4(C)CC[C@@H]3O2)cc1` (stereo partly drawn) [PRD123, 1,11-O-p-dimethylaminobenzylidene-7-O-p-cyanobenzoyl-1,7,11-trideacetylpyripyropene A], in that order: below 0.5 nM, “++++ (20<specific activity)”, at least 9 h and above 9 h.
In the same order, the values of `CC(=O)OCC1(C)C2C[C@H](OC(=O)c3ccc(C#N)cc3)[C@@]3(C)Oc4cc(-c5cccnc5)oc(=O)c4[C@H](O)C3[C@@]2(C)CC[C@@H]1OC(=O)C(C)C` (stereo partly drawn) [PRD119, 7-O-p-cyanobenzoyl-1,7-dideacetyl-1-O-isobutyrylpyripyropene A] are 0.5 to 1 nM, “++++ (20<specific activity)”, at least 9 h and above 9 h.
With `Cc1ccccc1[C@@H]1OCC2(C)C3C[C@H](OC(=O)c4ccc(F)cc4)[C@@]4(C)Oc5cc(-c6cccnc6)oc(=O)c5[C@H](O)C4[C@@]3(C)CC[C@@H]2O1` (stereo partly drawn) [PRD155, 1,11-O-o-methylbenzylidene-7-O-p-fluorobenzoyl-1,7,11-trideacetylpyripyropene A], in data set [3], the IC50 fell in the range of 0.5 to 1 nM and the “Specific activity ((IC50 of the test compound)/(IC50 of PRD 043))” value is on record as “+++ (10<specific activity≦20)”. In data set [4], the half-life at 6 μg/mL is at least 9 h and the Half-life is recorded as above 9 h.
